Data published in patent US7968577B2 (Bristol-Myers Squibb Company, priority 2006, dated 2011).

Tested on: AP-1 induced transcriptional activity
Experiment: Cellular Transrepressional Assay: AP-1 luciferase reporter in PMA-activated A549 cells
Format: cell-based
Details: for Emax: A549, 7 h, read-out: AP-1 Max % inh (Cellular Transrepression Assay)
Experimental: Cellular Transrepressional Assay
To measure the ability of test molecules to inhibit AP-1 induced transcriptional activity we utilized an A549 cell which was stably transfected with a plasmid containing 7× AP-1 DNA binding sites (pAP-1-Luc plasmid, Stratagene Co. La Jolla, Calif.) followed by the gene for luciferase. Cells were activated with 10 ng/ml of […] (PMA) plus or minus test molecules for 7 hours. After 7 hours a luciferase reagent was added to measure luciferase enzymatic activity in the cell. After a 10 minute incubation of luciferase reagent with cells, luminescence was measured in a TopCount luminescence counter. Repression of AP-1 activity was calculated as the percentage decrease in the signal induced by PMA alone. Test molecules were analyzed in the concentration range from 0.1 nM to 40 μM. EC50s were determined by using standard curve fitting methods such as Excel fit (Microsoft Co.).

[1] = Homo sapiens, maximum inhibition, Cellular Transrepression Assay
[2] = Homo sapiens, A549, Cellular Transrepression Assay

Row | Compound | EC50 [2] [nM] | EC50 (Cellular Transrepression Assay) [nM] | Emax [1] [%] | AP-1 Max % inh (Cellular Transrepression Assay) (maximum inhibition, Cellular Transrepression Assay) [%]
1 | CC(C)(C(=O)Nc1nc(Cc2ccc(-c3ccncc3)cc2)cs1)C(c1ccccc1)c1ccc(Cl)cc1 (stereo not shown) [Example 301, 3-(4-chlorophenyl)-2,2-dimethyl-3-phenyl-N-(4-((4-(4-pyridinyl)phenyl)methyl)-1,3-thiazol-2-yl)propanamide] | 10.2 | – | 73.7 | –
2 | CC(C)(C(=O)Nc1nc(Cc2ccc(-c3ccncc3)cc2)cs1)C(c1ccccc1)c1ccc(F)cc1 (stereo not shown) [Example 302, 3-(4-fluorophenyl)-2,2-dimethyl-3-phenyl-N-(4-((4-(4-pyridinyl)phenyl)methyl)-1,3-thiazol-2-yl)propanamide] | 33.3 | – | 76.8 | –
3 | CC(C)(C)c1ccc(C(c2ccccc2)C(C)(C)C(=O)Nc2nc(Cc3ccc(-c4ccncc4)cc3)cs2)cc1 (stereo not shown) [Example 303, 3-(4-(1,1-dimethylethyl)phenyl)-2,2-dimethyl-3-phenyl-N-(4-((4-(4-pyridinyl)phenyl)methyl)-1,3-thiazol-2-yl)propanamide] | 16.6 | – | 75.7 | –
4 | COc1ccc(C(c2ccc(OC)cc2)C(C)(C)C(=O)Nc2nc(Cc3ccc(-c4ccncc4)cc3)cs2)cc1 [Example 304, 2,2-dimethyl-3,3-bis(4-(methyloxy)phenyl)-N-(4-((4-(4-pyridinyl)phenyl)methyl)-1,3-thiazol-2-yl)propanamide] | 19.9 | – | 74.5 | –
5 | COc1cccc(C(c2ccccc2)C(C)(C)C(=O)Nc2nc(Cc3ccc(-c4ccncc4)cc3)cs2)c1 (stereo not shown) [Example 305, 2,2-dimethyl-3-(3-(methyloxy)phenyl)-3-phenyl-N-(4-((4-(4-pyridinyl)phenyl)methyl)-1,3-thiazol-2-yl)propanamide] | 22.5 | – | 84.2 | –
6 | CC(C)(C(=O)Nc1nccs1)[C@@H](c1ccccc1)c1ccc(O)cc1 [Example 325, (3S)-3-(4-hydroxyphenyl)-2,2-dimethyl-3-phenyl-N-1,3-thiazol-2-ylpropanamide] | 53.9 | – | 57.8 | –
7 | CC(C)(C(=O)NC1CCCC1)[C@@H](c1ccccc1)c1ccc(O)cc1 [Example 335, (3S)-N-cyclopentyl-3-(4-hydroxyphenyl)-2,2-dimethyl-3-phenylpropanamide] | 9.32 | – | 21.2 | –
8 | CC(C)(C(=O)Nc1nncs1)[C@@H](c1ccccc1)c1ccc(O)cc1 [Example 339, (3S)-3-(4-hydroxyphenyl)-2,2-dimethyl-3-phenyl-N-1,3,4-thiadiazol-2-ylpropanamide] | 30.5 | – | 60.8 | –
9 | CC(C)(C(=O)Nc1nncs1)[C@H](c1ccccc1)c1ccc(O)cc1 [Example 340, (3R)-3-(4-hydroxyphenyl)-2,2-dimethyl-3-phenyl-N-1,3,4-thiadiazol-2-ylpropanamide] | 90.3 | – | 57 | –
10 | CC(C)(C(=O)Nc1nccs1)C(c1ccccc1)c1ccc(O)c(F)c1 (stereo not shown) [Example 345, 3-(3-fluoro-4-hydroxyphenyl)-2,2-dimethyl-3-phenyl-N-1,3-thiazol-2-ylpropanamide] | – | 35.2 | 68.1 | –
11 | CC(C)(C(=O)Nc1nccs1)C(c1ccccc1)c1ccc(O)c(F)c1 (stereo not shown) [Example 347, 3-(3-fluoro-4-hydroxyphenyl)-2,2-dimethyl-3-phenyl-N-1,3-thiazol-2-ylpropanamide] | – | 10.8 | – | 55.26
12 | CC(C)(C(=O)Nc1nncs1)C(c1ccccc1)c1ccc(O)c(F)c1 (stereo not shown) [Example 348, 3-(3-fluoro-4-hydroxyphenyl)-2,2-dimethyl-3-phenyl-N-1,3,4-thiadiazol-2-ylpropanamide] | 120 | – | 54 | –
13 | CC(C)(C(=O)Nc1nccs1)[C@@H](c1ccccc1)c1ccc(O)c(Br)c1 [Example 350, (3S)-3-(3-bromo-4-hydroxyphenyl)-2,2-dimethyl-3-phenyl-N-1,3-thiazol-2-ylpropanamide] | 15 | – | 81.8 | –
14 | CC(C)(C(=O)Nc1nncs1)[C@@H](c1ccccc1)c1ccc(O)c(Br)c1 [Example 351, (3S)-3-(3-bromo-4-hydroxyphenyl)-2,2-dimethyl-3-phenyl-N-1,3,4-thiadiazol-2-ylpropanamide] | 16.4 | – | 66 | –
15 | COc1ccc(Cc2csc(NC(=O)C(C)(C)C(c3ccccc3)c3ccc(O)cc3)n2)cc1 (stereo not shown) [Example 352] | 118 | – | 61.7 | –
16 | CC(C)(C(=O)Nc1nc(Cc2ccc(-c3ccncc3)cc2)cs1)C(c1ccccc1)c1ccc(O)cc1 (stereo not shown) [Example 353, 3-(4-hydroxyphenyl)-2,2-dimethyl-3-phenyl-N-(4-((4-(4-pyridinyl)phenyl)methyl)-1,3-thiazol-2-yl)propanamide] | 100 | – | 77.8 | –
17 | CC(C)(C(=O)Nc1nc(Cc2ccc(-c3ccncc3)cc2)cs1)[C@@H](c1ccccc1)c1ccc(O)cc1 [Example 354, 3-(4-hydroxyphenyl)-2,2-dimethyl-3-phenyl-N-(4-((4-(4-pyridinyl)phenyl)methyl)-1,3-thiazol-2-yl)propanamide] | 158 | – | 71.8 | –
18 | CC(C)(C(=O)Nc1nc(Cc2ccc(-c3ccncc3)cc2)cs1)C(c1ccc(O)cc1)c1ccc(O)cc1 [Example 356] | 736 | – | 61.1 | –

Now from value to compound, other results behind:

Row | EC50 [2] [nM] | EC50 (Cellular Transrepression Assay) [nM] | Compound | Emax [1] [%] | AP-1 Max % inh (Cellular Transrepression Assay) (maximum inhibition, Cellular Transrepression Assay) [%]
19 | 144 | – | CC(C)(C(=O)Nc1nc(Cc2ccc(-c3ccncc3)cc2)cs1)C(c1ccccc1)c1cccc(O)c1 (stereo not shown) [Example 357] | 73.7 | –
20 | 278 | – | CC(C)(C(=O)Nc1nccs1)[C@@H](c1ccccc1)c1ccc(O)c(C#N)c1 [Example 359, (3S)-3-(3-Cyano-4-hydroxyphenyl)-2,2-dimethyl-3-phenyl-N-1,3-thiazol-2-ylpropanamide] | 65.2 | –
21 | 13.3 | – | CC(=O)Oc1ccc([C@H](c2ccccc2)C(C)(C)C(=O)Nc2nccs2)cc1 [Example 361, 4-((1S)-2,2-dimethyl-3-oxo-1-phenyl-3-(1,3-thiazol-2-ylamino)propyl)phenyl acetate] | 36.4 | –
22 | 16.6 | – | CC(C)(C(=O)Nc1nccs1)[C@@H](c1ccccc1)c1ccc(OC(=O)c2ccco2)cc1 [Example 362, 4-((1S)-2,2-dimethyl-3-oxo-1-phenyl-3-(1,3-thiazol-2-ylamino)propyl)phenyl 2-furancarboxylate] | 33.4 | –
23 | 184 | – | CC(C)(C(=O)Nc1nccs1)[C@@H](c1ccccc1)c1ccc(OC(=O)c2ccoc2)cc1 [Example 364, 4-((1S)-2,2-dimethyl-3-oxo-1-phenyl-3-(1,3-thiazol-2-ylamino)propyl)phenyl 3-furancarboxylate] | 39.1 | –
24 | 20 | – | CC(C)(C(=O)Nc1nccs1)[C@@H](c1ccccc1)c1ccc(OC(=O)C2CCCO2)cc1 (stereo partly drawn) [Example 366, 4-((1S)-2,2-dimethyl-3-oxo-1-phenyl-3-(1,3-thiazol-2-ylamino)propyl)phenyl tetrahydro-2-furancarboxylate] | 32.6 | –
25 | 819 | – | CC(=O)c1ccc(C(c2ccccc2)C(C)(C)C(=O)Nc2nncs2)cc1 (stereo not shown) [Example 369, 3-(4-acetylphenyl)-2,2-dimethyl-3-phenyl-N-1,3,4-thiadiazol-2-ylpropanamide] | 34.9 | –
26 | 121 | – | COc1ccc(-c2ccc(C(c3ccccc3)C(C)(C)C(=O)Nc3nccs3)cc2)cc1 (stereo not shown) [Example 374, 2,2-Dimethyl-3-(4′-(methyloxy)-4-biphenylyl)-3-phenyl-N-1,3-thiazol-2-ylpropanamide] | 39.7 | –
